Laboratory results published in patent US20080009418A1, “Selective Inhibitors” (Alchemia LTD., priority 2004, published 2008).

Key:
[1] = target: T1, Human melanin-concentrating hormone (MCH1) (Homo sapiens, UniProt Q99705); test: Radioligand binding, human melanin-concentrating hormone MCH1 membranes, FlashPlate, [125I]-S36057; conditions: compound at 10 μM; for A6 radioligand binding, percentage inhibition: [125I]-S36057; for A6 radioligand binding inhibition: human MCH1 membranes
T1 construct: purchased Perkin Elmer Biosignal
T1 sequence (Q99705 whole entry): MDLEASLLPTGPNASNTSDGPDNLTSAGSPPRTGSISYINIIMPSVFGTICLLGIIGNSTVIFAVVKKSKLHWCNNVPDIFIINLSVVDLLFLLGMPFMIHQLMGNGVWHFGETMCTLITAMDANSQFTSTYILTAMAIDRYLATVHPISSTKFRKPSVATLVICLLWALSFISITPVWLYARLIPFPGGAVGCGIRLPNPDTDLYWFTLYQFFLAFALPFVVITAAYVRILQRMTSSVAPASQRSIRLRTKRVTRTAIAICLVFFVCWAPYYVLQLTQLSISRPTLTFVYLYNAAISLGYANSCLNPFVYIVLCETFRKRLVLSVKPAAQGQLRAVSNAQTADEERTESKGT
Method in brief: (§1)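 Cloned human receptor membranes were coated onto FlashPlate wells and incubated with radioligand and compound (added from a 0.5 mM DMSO daughter plate) for 1 hour at room temperature in the dark. Scintillation counting gave percent inhibition, with DMSO defining total and reference ligand defining non-specific binding.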

Human neurokinin (NK1) = target: T2, Human neurokinin (NK1) (Homo sapiens, UniProt P25103); test: Radioligand binding, human neurokinin NK1 membranes, filtration, [125I]-Substance P; conditions: compound at 10 μM; for A8 radioligand binding inhibition: human neurokinin NK1 membranes
T2 construct: purchased Perkin Elmer Biosignal
T2 sequence (P25103 whole entry): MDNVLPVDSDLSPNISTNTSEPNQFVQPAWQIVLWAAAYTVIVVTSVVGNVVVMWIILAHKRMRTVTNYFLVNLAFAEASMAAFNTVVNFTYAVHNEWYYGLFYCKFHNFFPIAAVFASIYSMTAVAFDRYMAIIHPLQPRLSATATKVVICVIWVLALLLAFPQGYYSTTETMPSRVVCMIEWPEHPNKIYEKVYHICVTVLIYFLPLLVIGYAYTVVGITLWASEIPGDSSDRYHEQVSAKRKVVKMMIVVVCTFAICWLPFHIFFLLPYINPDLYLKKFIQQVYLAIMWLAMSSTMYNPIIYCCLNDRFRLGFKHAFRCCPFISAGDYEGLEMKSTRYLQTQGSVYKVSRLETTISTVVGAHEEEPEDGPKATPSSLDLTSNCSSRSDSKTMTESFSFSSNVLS
Method in brief: (§2)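 Membranes from cloned human receptors were incubated with compound and radioligand for 1 hour at room temperature. Bound ligand was collected on 0.3% PEI-soaked filters, washed with cold 50 mM Tris-HCl pH 7.4, and counted by scintillation. Percent inhibition was computed against DMSO totals and reference-ligand nonspecific wells.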

[2] = target: T3, Human neuropeptide Y (NPY-Y1) (Homo sapiens, UniProt P25929); test: Radioligand binding, human neuropeptide Y NPY-Y1 membranes, FlashPlate, [125I]-PYY; conditions: compound at 10 μM
T3 construct: purchased Perkin Elmer Biosignal
T3 sequence (P25929 1-384): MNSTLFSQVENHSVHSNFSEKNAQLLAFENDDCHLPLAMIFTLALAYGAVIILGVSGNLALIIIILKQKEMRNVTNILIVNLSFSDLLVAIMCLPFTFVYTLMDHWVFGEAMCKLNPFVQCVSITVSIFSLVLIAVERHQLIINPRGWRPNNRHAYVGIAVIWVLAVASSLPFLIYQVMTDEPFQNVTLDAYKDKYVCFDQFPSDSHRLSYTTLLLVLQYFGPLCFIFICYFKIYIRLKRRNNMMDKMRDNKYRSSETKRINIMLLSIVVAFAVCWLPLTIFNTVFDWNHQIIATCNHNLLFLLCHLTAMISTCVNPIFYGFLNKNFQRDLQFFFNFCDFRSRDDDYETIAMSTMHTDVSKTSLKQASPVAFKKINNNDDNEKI
Method in brief: as §1

Human opioid (ORL1) = target: T4, Human opioid (ORL1) (Homo sapiens, UniProt P41146); test: Radioligand binding, human opioid ORL1 membranes, FlashPlate, [125I]-Nociceptin; conditions: compound at 10 μM
T4 construct: purchased Perkin Elmer Biosignal
T4 sequence (P41146 whole entry): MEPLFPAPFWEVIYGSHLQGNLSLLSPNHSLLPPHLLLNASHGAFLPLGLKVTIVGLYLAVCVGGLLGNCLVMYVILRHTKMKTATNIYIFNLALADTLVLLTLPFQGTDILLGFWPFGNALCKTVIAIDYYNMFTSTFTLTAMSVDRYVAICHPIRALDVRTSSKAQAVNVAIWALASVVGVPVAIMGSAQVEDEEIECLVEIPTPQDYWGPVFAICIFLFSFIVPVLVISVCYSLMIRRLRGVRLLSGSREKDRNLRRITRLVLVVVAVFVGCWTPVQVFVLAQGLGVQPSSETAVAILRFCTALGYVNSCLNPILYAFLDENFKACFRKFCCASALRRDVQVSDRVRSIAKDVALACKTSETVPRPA
Method in brief: as §1

Human Melanocortin (MC3) = target: T5, Human Melanocortin (MC3) (Homo sapiens, UniProt P41968); test: Radioligand binding, human melanocortin MC3 membranes, FlashPlate, [125I]-NDP-αMSH; conditions: compound at 10 μM; for A3 radioligand binding inhibition: human melanocortin MC3 membranes
T5 construct: purchased Perkin Elmer Biosignal
T5 sequence (P41968 whole entry): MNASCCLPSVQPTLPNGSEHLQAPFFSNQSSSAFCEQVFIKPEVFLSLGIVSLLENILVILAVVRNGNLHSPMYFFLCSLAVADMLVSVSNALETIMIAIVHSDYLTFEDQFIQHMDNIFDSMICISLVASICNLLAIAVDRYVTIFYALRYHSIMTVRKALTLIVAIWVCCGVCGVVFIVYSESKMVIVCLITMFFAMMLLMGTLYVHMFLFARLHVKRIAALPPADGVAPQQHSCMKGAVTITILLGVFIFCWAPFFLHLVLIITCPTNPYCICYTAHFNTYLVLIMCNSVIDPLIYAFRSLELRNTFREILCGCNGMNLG
Method in brief: as §1

Human κ-Opioid (KOP) = target: T6, Human κ-Opioid (KOP) (Homo sapiens, UniProt P41145); test: Radioligand binding, human κ-opioid (KOP) membranes, filtration, [3H]-Diprenorphine; conditions: compound at 10 μM; for A2 radioligand binding inhibition: human κ-opioid (KOP) membranes
T6 construct: purchased Perkin Elmer Biosignal
T6 sequence (P41145 whole entry): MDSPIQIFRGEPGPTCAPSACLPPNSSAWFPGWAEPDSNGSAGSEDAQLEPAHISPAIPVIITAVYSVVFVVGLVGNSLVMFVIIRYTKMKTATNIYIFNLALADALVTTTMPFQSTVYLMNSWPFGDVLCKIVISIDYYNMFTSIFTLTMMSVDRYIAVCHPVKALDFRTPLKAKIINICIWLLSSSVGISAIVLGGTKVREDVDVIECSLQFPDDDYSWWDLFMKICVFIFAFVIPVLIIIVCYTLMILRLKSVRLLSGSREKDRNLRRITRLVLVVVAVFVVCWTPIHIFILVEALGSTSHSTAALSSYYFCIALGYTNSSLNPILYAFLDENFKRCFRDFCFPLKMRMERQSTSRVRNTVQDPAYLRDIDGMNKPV
Method in brief: as §2

Human δ-opioid (DOP) = target: T7, Human δ-opioid (DOP) (Homo sapiens, UniProt P41143); test: Radioligand binding, human δ-opioid (DOP) membranes, FlashPlate, [3H]-Bremazocine; conditions: compound at 10 μM; for A1 radioligand binding inhibition: human δ-opioid (DOP) membranes
T7 construct: purchased Perkin Elmer Biosignal
T7 sequence (P41143 whole entry): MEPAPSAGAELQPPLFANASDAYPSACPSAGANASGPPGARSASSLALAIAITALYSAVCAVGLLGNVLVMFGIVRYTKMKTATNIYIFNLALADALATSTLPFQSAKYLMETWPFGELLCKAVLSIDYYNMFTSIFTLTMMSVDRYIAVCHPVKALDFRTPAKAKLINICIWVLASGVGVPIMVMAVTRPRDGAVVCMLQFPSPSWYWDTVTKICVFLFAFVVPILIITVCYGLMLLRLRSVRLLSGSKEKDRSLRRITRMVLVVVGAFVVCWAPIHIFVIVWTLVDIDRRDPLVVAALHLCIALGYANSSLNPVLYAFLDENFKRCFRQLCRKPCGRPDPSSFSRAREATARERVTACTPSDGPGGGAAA
Method in brief: as §1

Human melanocortin (MC5) = target: T8, Human melanocortin (MC5) (Homo sapiens, UniProt P33032); test: Radioligand binding, human melanocortin MC5 membranes, FlashPlate, [125I]-NDP-αMSH; conditions: compound at 10 μM; for A5 radioligand binding inhibition: human melanocortin MC5 membranes
T8 construct: purchased Perkin Elmer Biosignal
T8 sequence (P33032 whole entry): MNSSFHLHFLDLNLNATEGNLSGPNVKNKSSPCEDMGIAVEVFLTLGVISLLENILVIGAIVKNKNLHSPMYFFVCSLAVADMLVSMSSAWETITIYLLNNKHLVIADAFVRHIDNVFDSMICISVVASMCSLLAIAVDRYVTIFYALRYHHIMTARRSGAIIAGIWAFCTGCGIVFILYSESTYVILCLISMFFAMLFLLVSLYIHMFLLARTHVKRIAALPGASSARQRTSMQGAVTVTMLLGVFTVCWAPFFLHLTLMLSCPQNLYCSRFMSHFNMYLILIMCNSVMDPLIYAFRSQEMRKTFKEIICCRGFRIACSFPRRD
Method in brief: as §1

Human μ-opioid (MOP) = target: T9, Human μ-opioid (MOP) (Homo sapiens, UniProt P35372); test: Radioligand binding, human μ-opioid (MOP) membranes, FlashPlate, [3H]-Naloxone; conditions: compound at 10 μM; for A7 radioligand binding inhibition: human μ-opioid (MOP) membranes
T9 construct: purchased Perkin Elmer Biosignal
T9 sequence (P35372 whole entry): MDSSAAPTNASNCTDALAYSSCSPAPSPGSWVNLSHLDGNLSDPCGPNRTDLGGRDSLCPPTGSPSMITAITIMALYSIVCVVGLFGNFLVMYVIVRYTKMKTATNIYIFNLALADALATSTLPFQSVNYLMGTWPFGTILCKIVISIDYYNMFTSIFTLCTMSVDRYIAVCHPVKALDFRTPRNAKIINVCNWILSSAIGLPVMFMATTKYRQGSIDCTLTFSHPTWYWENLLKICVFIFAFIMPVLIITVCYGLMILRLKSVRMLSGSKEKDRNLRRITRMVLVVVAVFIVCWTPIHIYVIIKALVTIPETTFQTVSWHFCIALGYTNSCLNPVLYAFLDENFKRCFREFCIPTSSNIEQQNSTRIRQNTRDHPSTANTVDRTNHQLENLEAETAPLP
Method in brief: as §1

Mouse urotensin (mUR2) = target: T10, Mouse urotensin (mUR2) (Mus musculus, UniProt Q8VIH9); test: Radioligand binding, mouse urotensin mUR2 membranes, FlashPlate, [125I]-Urotensin II; conditions: compound at 10 μM; for A11 radioligand binding inhibition: mouse urotensin mUR2 membranes
T10 construct: purchased Perkin Elmer Biosignal
T10 sequence (Q8VIH9 1-385): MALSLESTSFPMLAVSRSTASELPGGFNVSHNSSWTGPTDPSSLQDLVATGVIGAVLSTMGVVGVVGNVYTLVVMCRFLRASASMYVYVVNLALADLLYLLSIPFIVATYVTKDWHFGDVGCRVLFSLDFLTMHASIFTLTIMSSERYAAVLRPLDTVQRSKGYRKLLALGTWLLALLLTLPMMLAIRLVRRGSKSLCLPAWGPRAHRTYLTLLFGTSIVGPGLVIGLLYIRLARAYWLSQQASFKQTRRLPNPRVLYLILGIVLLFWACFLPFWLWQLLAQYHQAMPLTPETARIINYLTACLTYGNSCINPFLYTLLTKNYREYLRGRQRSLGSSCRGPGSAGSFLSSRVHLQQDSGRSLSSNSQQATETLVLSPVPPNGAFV
Method in brief: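 Cloned mouse urotensin (mUR2) receptor membranes from Perkin Elmer Biosignal were immobilized in FlashPlate microplates using a proprietary coating. Each well got 19.5 μl buffer, then 0.5 μl of DMSO, reference ligand, or compound. Adding 5 μl of [125I]-Urotensin II, diluted to 5× final concentration in binding buffer, started binding. Plates were sealed with TopSeal-A and incubated 1 hour at room temperature in the dark. Wells were counted for 30 seconds each on a TopCount after a 60-second delay, and percentage inhibition was calculated.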

Human Melanocortin (MC4) = target: T11, Human Melanocortin (MC4) (Homo sapiens, UniProt P32245); test: Radioligand binding, human melanocortin MC4 membranes, FlashPlate, [125I]-NDP-αMSH; conditions: compound at 10 μM; for A4 radioligand binding inhibition: human melanocortin MC4 membranes
T11 construct: purchased Perkin Elmer Biosignal
T11 sequence (P32245 whole entry): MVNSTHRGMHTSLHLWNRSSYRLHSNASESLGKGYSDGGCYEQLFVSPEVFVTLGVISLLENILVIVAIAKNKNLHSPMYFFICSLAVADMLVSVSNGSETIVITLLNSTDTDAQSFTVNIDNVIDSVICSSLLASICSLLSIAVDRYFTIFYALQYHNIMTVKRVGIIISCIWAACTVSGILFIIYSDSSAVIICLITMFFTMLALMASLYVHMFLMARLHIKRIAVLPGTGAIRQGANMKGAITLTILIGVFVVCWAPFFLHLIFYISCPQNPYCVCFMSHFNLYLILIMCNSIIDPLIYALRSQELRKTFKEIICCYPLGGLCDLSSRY
Method in brief: as §1

Row | SMILES | A6 radioligand binding, percentage inhibition [1] | A8 radioligand binding, percentage inhibition (Human neurokinin (NK1); [125I]-Substance P) | A9 radioligand binding, percentage inhibition ([2]; [125I]-PYY) | A10 radioligand binding, percentage inhibition (Human opioid (ORL1); [125I]-Nociceptin) | A3 radioligand binding, percentage inhibition (Human Melanocortin (MC3); [125I]-NDP-αMSH) | A2 radioligand binding, percentage inhibition (Human κ-Opioid (KOP); [3H]-Diprenorphine) | A1 radioligand binding, percentage inhibition (Human δ-opioid (DOP); [3H]-Bremazocine) | A5 radioligand binding, percentage inhibition (Human melanocortin (MC5); [125I]-NDP-αMSH) | A7 radioligand binding, percentage inhibition (Human μ-opioid (MOP); [3H]-Naloxone) | A11 radioligand binding, percentage inhibition (Mouse urotensin (mUR2); [125I]-Urotensin II) | A4 radioligand binding, percentage inhibition (Human Melanocortin (MC4); [125I]-NDP-αMSH) | A6 radioligand binding inhibition [1] | A8 radioligand binding inhibition (Human neurokinin (NK1)) | A9 radioligand binding inhibition ([2]; human NPY-Y1 membranes) | A10 radioligand binding inhibition (Human opioid (ORL1); human ORL1 membranes) | A3 radioligand binding inhibition (Human Melanocortin (MC3)) | A2 radioligand binding inhibition (Human κ-Opioid (KOP)) | A1 radioligand binding inhibition (Human δ-opioid (DOP)) | A5 radioligand binding inhibition (Human melanocortin (MC5)) | A7 radioligand binding inhibition (Human μ-opioid (MOP)) | also measured
1 | CO[C@H]1[C@H](O)[C@@H](COCc2ccccc2)OC(OCc2ccc(Cl)cc2)[C@@H]1NC(=O)CCCN (stereo partly shown) [compound 103] | − (“−” indicates less than 50% inhibition at 10 μM) | + (“+” indicates greater than 50% inhibition at 10 μM) | − (“−” indicates less than 50% inhibition at 10 μM) | − (“−” indicates less than 50% inhibition at 10 μM) | − (“−” indicates less than 50% inhibition at 10 μM) | − (“−” indicates less than 50% inhibition at 10 μM) | − (“−” indicates less than 50% inhibition at 10 μM) | − (“−” indicates less than 50% inhibition at 10 μM) | − (“−” indicates less than 50% inhibition at 10 μM) | − (“−” indicates less than 50% inhibition at 10 μM) | − (“−” indicates less than 50% inhibition at 10 μM) |  |  |  |  |  |  |  |  |  | 
2 | COC[C@H]1OC(OCc2ccc(-c3ccccc3)cc2)[C@H](NC(=O)CCCN)[C@@H](OCc2ccc3ccccc3c2)[C@@H]1O (stereo partly shown) [compound 5] |  |  |  |  |  |  |  |  |  |  |  | − (“−” indicates less than 50% inhibition at 10 μM) | + (“+” indicates greater than 50% inhibition at 10 μM) | − (“−” indicates less than 50% inhibition at 10 μM) | − (“−” indicates less than 50% inhibition at 10 μM) | − (“−” indicates less than 50% inhibition at 10 μM) | − (“−” indicates less than 50% inhibition at 10 μM) | − (“−” indicates less than 50% inhibition at 10 μM) | + (“+” indicates greater than 50% inhibition at 10 μM) | − (“−” indicates less than 50% inhibition at 10 μM) | A11 radioligand binding inhibition (Mouse urotensin (mUR2)): − (“−” indicates less than 50% inhibition at 10 μM); A4 radioligand binding inhibition (Human Melanocortin (MC4)): − (“−” indicates less than 50% inhibition at 10 μM)
3 | COC[C@H]1OC(OCc2ccc3ccccc3c2)[C@H](NC(=O)CCCNC(=N)N)[C@@H](OCc2cccc(O)c2)[C@@H]1O (stereo partly shown) [compound 135] | − (“−” indicates less than 50% inhibition at 10 μM) | − (“−” indicates less than 50% inhibition at 10 μM) | − (“−” indicates less than 50% inhibition at 10 μM) | − (“−” indicates less than 50% inhibition at 10 μM) | − (“−” indicates less than 50% inhibition at 10 μM) | − (“−” indicates less than 50% inhibition at 10 μM) | − (“−” indicates less than 50% inhibition at 10 μM) | − (“−” indicates less than 50% inhibition at 10 μM) | + (“+” indicates greater than 50% inhibition at 10 μM) | − (“−” indicates less than 50% inhibition at 10 μM) | − (“−” indicates less than 50% inhibition at 10 μM) |  |  |  |  |  |  |  |  |  | 
4 | NCCC(=O)N[C@H]1C(OCc2ccc3ccccc3c2)O[C@H](COCc2ccc(Cl)cc2)[C@@H](O)[C@@H]1OCc1ccc(Cl)cc1 (stereo partly shown) [compound 441] |  |  |  |  |  |  |  |  |  |  |  |  |  |  |  |  |  |  |  |  | A6: inhibition of radioligand binding ([1]; [125I]-S36057, human MCH1 membranes): + (“+” indicates greater than 50% inhibition at 10 μM); A8: inhibition of radioligand binding (Human neurokinin (NK1); [125I]-Substance P, human NK1 membranes): + (“+” indicates greater than 50% inhibition at 10 μM); A9: inhibition of radioligand binding ([2]; [125I]-PYY, human NPY-Y1 membranes): − (“−” indicates less than 50% inhibition at 10 μM); A10: inhibition of radioligand binding (Human opioid (ORL1); [125I]-Nociceptin, human ORL1 membranes): − (“−” indicates less than 50% inhibition at 10 μM); A3: inhibition of radioligand binding (Human Melanocortin (MC3); [125I]-NDP-αMSH, human MC3 membranes, 10 µM): + (“+” indicates greater than 50% inhibition at 10 μM); A2: inhibition of radioligand binding (Human κ-Opioid (KOP); [3H]-Diprenorphine, human KOP membranes): − (“−” indicates less than 50% inhibition at 10 μM); A1: inhibition of radioligand binding (Human δ-opioid (DOP); [3H]-Bremazocine, human DOP membranes): − (“−” indicates less than 50% inhibition at 10 μM); A5: inhibition of radioligand binding (Human melanocortin (MC5); [125I]-NDP-αMSH, human MC5 membranes): + (“+” indicates greater than 50% inhibition at 10 μM); A7: inhibition of radioligand binding (Human μ-opioid (MOP); [3H]-Naloxone, human MOP membranes): − (“−” indicates less than 50% inhibition at 10 μM); A11: inhibition of radioligand binding (Mouse urotensin (mUR2); [125I]-Urotensin II, mouse mUR2 membranes): − (“−” indicates less than 50% inhibition at 10 μM); A4: inhibition of radioligand binding (Human Melanocortin (MC4); [125I]-NDP-αMSH, human MC4 membranes, 10 µM): + (“+” indicates greater than 50% inhibition at 10 μM)
5 | CO[C@H]1[C@H](O)[C@@H](COCc2ccc(Cl)cc2)OC(OCc2ccccc2)[C@@H]1NC(=O)CNC(=N)N (stereo partly shown) [compound 90] |  |  |  |  |  |  |  |  |  |  |  | − (“−” indicates less than 50% inhibition at 10 μM) | + (“+” indicates greater than 50% inhibition at 10 μM) | − (“−” indicates less than 50% inhibition at 10 μM) | − (“−” indicates less than 50% inhibition at 10 μM) | − (“−” indicates less than 50% inhibition at 10 μM) | − (“−” indicates less than 50% inhibition at 10 μM) | − (“−” indicates less than 50% inhibition at 10 μM) | − (“−” indicates less than 50% inhibition at 10 μM) | − (“−” indicates less than 50% inhibition at 10 μM) | A11 radioligand binding inhibition (Mouse urotensin (mUR2)): − (“−” indicates less than 50% inhibition at 10 μM); A4 radioligand binding inhibition (Human Melanocortin (MC4)): − (“−” indicates less than 50% inhibition at 10 μM)
